The text below walks through data of the supplement of paper PMC11061612.

Common to all, as to experiment: combination Emax (second highest fraction inhibited in the dose matrix, 72 h); higher = more inhibition; extreme values may be limits of the assay
The subject of test [1] is NCI-H835 (Other Solid Carcinomas). The essentials: (§1)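 Cell lines grown in DMEM/F12 or RPMI with 10% FBS were plated in 1536-well plates and held 24 hours at 37°C, 5% CO2 before 72 hours of exposure to two-drug dose matrices, with DMSO typically at 0.2%. CellTiter-Glo 2.0 luminescence gave viability, which was converted to inhibition. Vehicle wells were set to 0 and blank wells to 1. Combination Emax is the second-highest inhibition in the matrix, and Bliss excess is the observed combination effect minus the expected EA + EB − EA·EB, where EA and EB are the single-agent effects.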

In the next test the test system is SK-MEL-24 (Melanoma). In a few lines:
as §1

Test [2] has as its system SBC-3 (Small Cell Lung Carcinoma). In a few lines:
as §1

Test [3] concerns CAL-85-1 (Breast Carcinoma). In a few lines: as §1
For test [4], the system named is KNS-62 (Squamous Cell Lung Carcinoma). The essentials: as §1
Test [5] deals with BC-1 (B-Cell Non-Hodgkin's Lymphoma). The essentials: as §1
For test [6], the system named is NCI-H1435 (Non-Small Cell Lung Carcinoma). The essentials: as §1
The test system of test [7] is RPMI-8402 (T-Lymphoblastic Leukemia). The essentials: as §1
A further test deals with A375 (Melanoma). The essentials:
as §1

The test system of a further test is C32 (Melanoma). In a few lines: as §1
Test [8] concerns GRANTA-519 (B-Cell Non-Hodgkin's Lymphoma). The essentials:
as §1

The subject of test [9] is JJN-3 (Plasma Cell Myeloma). The essentials: as §1
The test system of a further test is SK-N-DZ (Neuroblastoma). In a few lines:
as §1

For the next test, the system named is HT-144 (Melanoma). The essentials: as §1
Test [10] deals with IGROV-1 (Ovarian Carcinoma). In a few lines: as §1
In test [11] the test system is Daudi (Burkitt's Lymphoma). In a few lines:
as §1

Each structure is given as a SMILES string.

With `C=CCn1c(=O)c2cnc(Nc3ccc(N4CCN(C)CC4)cc3)nc2n1-c1cccc(C(C)(C)O)n1` [AZD1775] + CCc1c2c(nc3ccc(O)cc13)-c1cc3c(c(=O)n1C2)COC(=O)[C@]3(O)CC [SN-38] (first compound max 1 µM, partner max 0.3 µM), the “combination Emax” value in [1] came to 0.668; with SK-MEL-24 (Melanoma), 0.806; in [2], 0.946; in test [3] it was 0.799; in [4], 0.836; in test [5], 1. The “combination Emax” value in test [6] worked out at 0.547; in test [7], 1; in the test with A375 (Melanoma) it was 0.925; with C32 (Melanoma), 0.69.
Turning to `C=CCn1c(=O)c2cnc(Nc3ccc(N4CCN(C)CC4)cc3)nc2n1-c1cccc(C(C)(C)O)n1` [AZD1775] + Nc1ccn([C@@H]2O[C@H](CO)[C@@H](O)C2(F)F)c(=O)n1 [Gemcitabine] (first compound max 1 µM, partner max 0.3 µM), the “combination Emax” value in test [1] turned out to be 0.476; with SK-MEL-24 (Melanoma), 0.793; in [2], 0.949; in test [3] it was 0.697; in test [4] it was 0.561; in [5] it was 0.995. The “combination Emax” value in [6] was 0.345; in test [7], 1; in the test on A375 (Melanoma), 0.966; in the test with C32 (Melanoma), 0.701.
For `CN(CCO)CC[C@H](CSc1ccccc1)Nc1ccc(S(=O)(=O)NC(=O)c2ccc(N3CCC([C@@H](O)c4ccccc4-c4ccc(Cl)cc4)CC3)cc2)cc1S(=O)(=O)C(F)(F)F` [AZD4320] + CS(=O)(=O)CCNCc1ccc(-c2ccc3ncnc(Nc4ccc(OCc5cccc(F)c5)c(Cl)c4)c3c2)o1 [Lapatinib] (first compound max 1 µM, 7x7, partner max 10 µM), the “combination Emax” value was 0.982 in test [1]; 0.942 in the test on SK-MEL-24 (Melanoma); 0.407 in test [2]; 0.957 in test [3]; 0.291 in [4]; 0.961 in [5]. Besides, the “combination Emax” value in [6] came to 0.953; in test [7], 0.988; with A375 (Melanoma), 0.413; in the test with C32 (Melanoma), 0.344.
Take `COc1nnc2ccc(N3CCC(c4ccc(OCCN5CCN(C)C(=O)[C@H]5C)cc4)CC3)nn12` [AZD5153] + CN(CC[C@H](CSC1=CC=CC=C1)NC2=C(C=C(C=C2)S(=O)(=O)NC(=O)C3=CC=C(C=C3)N4CCC(CC4)[C@H](C5=CC=CC=C5C6=CC=C(C=C6)Cl)O)S(=O)(=O)C(F)(F)F)CCO [AZD4320] (first compound max 1 µM, 7x7, partner max 1 µM): the “combination Emax” value was determined as 0.986 in test [8]; 0.969 in [9]; 0.922 in the test with SK-N-DZ (Neuroblastoma); 0.454 with HT-144 (Melanoma); 0.476 in the test with A375 (Melanoma); 0.608 in [10]. Moreover, the “combination Emax” value in [11] stood at 0.58; in the test on C32 (Melanoma) it was 0.444.
As to `Cc1c2c(nn1C)CSCc1cc(n(C)n1)CSc1cc(c3ccccc3c1)OCCCc1c(C(=O)O)n(C)c3c-2c(Cl)ccc13` [AZD5991] + CS(=O)(=O)CCNCc1ccc(-c2ccc3ncnc(Nc4ccc(OCc5cccc(F)c5)c(Cl)c4)c3c2)o1 [Lapatinib] (first compound max 1 µM, 7x7, partner max 10 µM), the “combination Emax” value in [1] turned out to be 0.332; in the test on SK-MEL-24 (Melanoma), 0.806; in test [2] it was 0.28; in test [3], 0.825; in test [4] it was 0.213; in [5], 1. Also, the “combination Emax” value in [6] was 0.219; in test [7] it was 0.955; with A375 (Melanoma), 0.318; with C32 (Melanoma), 0.228.
On to `Cc1c2c(nn1C)CSCc1cc(n(C)n1)CSc1cc(c3ccccc3c1)OCCCc1c(C(=O)O)n(C)c3c-2c(Cl)ccc13` [AZD5991] + Nc1ccn([C@@H]2O[C@H](CO)[C@@H](O)C2(F)F)c(=O)n1 [Gemcitabine] (first compound max 1 µM, 7x7, partner max 0.3 µM), for which the “combination Emax” value in [1] was 0.42; in the test with SK-MEL-24 (Melanoma), 0.758; in test [2] it was 0.962; in [3], 0.558; in test [4], 0.413; in test [5] it was 1. Further, the “combination Emax” value in test [6] was 0.317; in test [7], 1; with A375 (Melanoma), 0.961; with C32 (Melanoma) it was 0.762.
`C[C@@H]1COCCN1c1cc(C2([S@](C)(=N)=O)CC2)nc(-c2ccnc3[nH]ccc23)n1` [AZD6738] + C1CC(C1)(C(=O)[O-])C(=O)[O-].N.N.[Pt+2] [Carboplatin] (first compound max 10 µM, 7x7, partner max 10 µM): the “combination Emax” value in [1] worked out at 0.322; in the test with SK-MEL-24 (Melanoma) it was 0.36; in [2], 0.647; in test [3], 0.382; in test [4], 0.438; in [5] it was 0.849. The “combination Emax” value was 0.136 in [6], 0.967 in test [7], 0.521 with A375 (Melanoma) and 0.601 with C32 (Melanoma).
Turning to `C[C@@H](Nc1cc(F)cc(F)c1)c1cc(C(=O)N(C)C)cc2c(=O)cc(N3CCOCC3)oc12` [AZD8186] + C1CN(CCC1(C(=O)N[C@@H](CCO)C2=CC=C(C=C2)Cl)N)C3=NC=NC4=C3C=CN4 [AZD5363] (first compound max 10 µM, 7x7, partner max 10 µM), the “combination Emax” value in [1] turned out to be 0.525; with SK-MEL-24 (Melanoma), 0.508; in test [2], 0.446; in test [3], 0.214; in [4] it was 0.533; in test [5], 0.577. In addition, the “combination Emax” value in [6] was 0.258; in test [7], 0.588; with A375 (Melanoma), 0.232; in the test on C32 (Melanoma) it was 0.436.
